Data as given in ChEMBL document CHEMBL3860082, “Effect of lysine methylation and acetylation on the RNA recognition and cellular uptake of Tat-derived peptides” (Bioorg Med Chem, 2016).

What was measured:
[1] = Cytotoxicity against human Jurkat cells assessed as reduction in cell viability at 120 uM after 4 hrs by WST1 assay; type: toxicity, cell-based
[2] = Drug uptake in human Jurkat cells assessed as mean fluorescence intensity at 7 uM after 15 mins in presence of bovine serum by propidium iodide staining based FACS analysis; type: ADME, cell-based; conditions: 0.25 h
[3] = Drug uptake in human Jurkat cells assessed as mean fluorescence intensity at 120 uM after 15 mins in presence of bovine serum by propidium iodide staining based FACS analysis; type: ADME, cell-based; conditions: 0.25 h
[4] = Competitive binding affinity to fluorescein-labeled HIV TAR RNA in presence of Escherichia coli tRNA by electrophoretic mobility shift assay; set-up: species or system Human immunodeficiency virus; conditions: read-out: Kd(app)

SMILES: N=C(N)NCCC[C@H](NC(=O)[C@H](CCCNC(=N)N)NC(=O)[C@H](CCCNC(=N)N)NC(=O)[C@H](CCC(N)=O)NC(=O)[C@H](CCCNC(=N)N)NC(=O)[C@H](CCCNC(=N)N)NC(=O)[C@H](CCCCN)NC(=O)[C@H](CCCCN)NC(=O)[C@H](CCCNC(=N)N)NC(=O)CNC(=O)[C@H](Cc1ccc(O)cc1)NC(=O)CCNC(=O)c1ccc2c(c1)C1(OC2=O)c2ccc(O)cc2Oc2cc(O)ccc21)C(N)=O
- Activity [1]: Non-Toxic
- Drug uptake [2]: Active
- Drug uptake [3]: Active

SMILES: C[N+](C)(C)CCCC[C@H](NC(=O)[C@H](CCCCN)NC(=O)[C@H](CCCNC(=N)N)NC(=O)CNC(=O)[C@H](Cc1ccc(O)cc1)NC(=O)CCNC(=O)c1ccc2c(c1)C1(OC2=O)c2ccc(O)cc2Oc2cc(O)ccc21)C(=O)N[C@@H](CCCNC(=N)N)C(=O)N[C@@H](CCCNC(=N)N)C(=O)N[C@@H](CCC(N)=O)C(=O)N[C@@H](CCCNC(=N)N)C(=O)N[C@@H](CCCNC(=N)N)C(=O)N[C@@H](CCCNC(=N)N)C(=O)O
- Activity [1]: Non-Toxic
- Drug uptake [3]: Active

SMILES: CC(=O)N[C@@H](Cc1ccc(O)cc1)C(=O)NCC(=O)N[C@@H](CCCNC(=N)N)C(=O)N[C@@H](CCCCN(C)C)C(=O)N[C@@H](CCCCN)C(=O)N[C@@H](CCCNC(=N)N)C(=O)N[C@@H](CCCNC(=N)N)C(=O)N[C@@H](CCC(N)=O)C(=O)N[C@@H](CCCNC(=N)N)C(=O)N[C@@H](CCCNC(=N)N)C(=O)N[C@@H](CCCNC(=N)N)C(N)=O
- Kd [4]: 183 nM

SMILES: CN(C)CCCC[C@H](NC(=O)[C@H](CCCNC(=N)N)NC(=O)CNC(=O)[C@H](Cc1ccc(O)cc1)NC(=O)CCNC(=O)c1ccc2c(c1)C1(OC2=O)c2ccc(O)cc2Oc2cc(O)ccc21)C(=O)N[C@@H](CCCCN)C(=O)N[C@@H](CCCNC(=N)N)C(=O)N[C@@H](CCCNC(=N)N)C(=O)N[C@@H](CCC(N)=O)C(=O)N[C@@H](CCCNC(=N)N)C(=O)N[C@@H](CCCNC(=N)N)C(=O)N[C@@H](CCCNC(=N)N)C(=O)O
- Activity [1]: Non-Toxic
- Drug uptake [2]: Active
- Drug uptake [3]: Active

SMILES: C[N+](C)(C)CCCC[C@H](NC(=O)[C@H](CCCNC(=N)N)NC(=O)CNC(=O)[C@H](Cc1ccc(O)cc1)NC(=O)CCNC(=O)c1ccc2c(c1)C1(OC2=O)c2ccc(O)cc2Oc2cc(O)ccc21)C(=O)N[C@@H](CCCCN)C(=O)N[C@@H](CCCNC(=N)N)C(=O)N[C@@H](CCCNC(=N)N)C(=O)N[C@@H](CCC(N)=O)C(=O)N[C@@H](CCCNC(=N)N)C(=O)N[C@@H](CCCNC(=N)N)C(=O)N[C@@H](CCCNC(=N)N)C(=O)O
- Activity [1]: Non-Toxic
- Drug uptake [2]: Active
- Drug uptake [3]: Active

SMILES: CC(=O)NCCCC[C@H](NC(=O)[C@H](CCCNC(=N)N)NC(=O)CNC(=O)[C@H](Cc1ccc(O)cc1)NC(C)=O)C(=O)N[C@@H](CCCCN)C(=O)N[C@@H](CCCNC(=N)N)C(=O)N[C@@H](CCCNC(=N)N)C(=O)N[C@@H](CCC(N)=O)C(=O)N[C@@H](CCCNC(=N)N)C(=O)N[C@@H](CCCNC(=N)N)C(=O)N[C@@H](CCCNC(=N)N)C(N)=O
- Kd [4]: 437 nM

SMILES: CC(=O)N[C@@H](Cc1ccc(O)cc1)C(=O)NCC(=O)N[C@@H](CCCNC(=N)N)C(=O)N[C@@H](CCCC[N+](C)(C)C)C(=O)N[C@@H](CCCCN)C(=O)N[C@@H](CCCNC(=N)N)C(=O)N[C@@H](CCCNC(=N)N)C(=O)N[C@@H](CCC(N)=O)C(=O)N[C@@H](CCCNC(=N)N)C(=O)N[C@@H](CCCNC(=N)N)C(=O)N[C@@H](CCCNC(=N)N)C(N)=O
- Kd [4]: 168 nM

SMILES: CNCCCC[C@H](NC(=O)[C@H](CCCCN)NC(=O)[C@H](CCCNC(=N)N)NC(=O)CNC(=O)[C@H](Cc1ccc(O)cc1)NC(=O)CCNC(=O)c1ccc2c(c1)C1(OC2=O)c2ccc(O)cc2Oc2cc(O)ccc21)C(=O)N[C@@H](CCCNC(=N)N)C(=O)N[C@@H](CCCNC(=N)N)C(=O)N[C@@H](CCC(N)=O)C(=O)N[C@@H](CCCNC(=N)N)C(=O)N[C@@H](CCCNC(=N)N)C(=O)N[C@@H](CCCNC(=N)N)C(=O)O
- Activity [1]: Non-Toxic

SMILES: CC(=O)NCCCC[C@H](NC(=O)[C@H](CCCCN)NC(=O)[C@H](CCCNC(=N)N)NC(=O)CNC(=O)[C@H](Cc1ccc(O)cc1)NC(=O)CCNC(=O)c1ccc2c(c1)C1(OC2=O)c2ccc(O)cc2Oc2cc(O)ccc21)C(=O)N[C@@H](CCCNC(=N)N)C(=O)N[C@@H](CCCNC(=N)N)C(=O)N[C@@H](CCC(N)=O)C(=O)N[C@@H](CCCNC(=N)N)C(=O)N[C@@H](CCCNC(=N)N)C(=O)N[C@@H](CCCNC(=N)N)C(=O)O
- Activity [1]: Non-Toxic

SMILES: CC(=O)NCCCC[C@H](NC(=O)[C@H](CCCNC(=N)N)NC(=O)CNC(=O)[C@H](Cc1ccc(O)cc1)NC(=O)CCNC(=O)c1ccc2c(c1)C1(OC2=O)c2ccc(O)cc2Oc2cc(O)ccc21)C(=O)N[C@@H](CCCCN)C(=O)N[C@@H](CCCNC(=N)N)C(=O)N[C@@H](CCCNC(=N)N)C(=O)N[C@@H](CCC(N)=O)C(=O)N[C@@H](CCCNC(=N)N)C(=O)N[C@@H](CCCNC(=N)N)C(=O)N[C@@H](CCCNC(=N)N)C(=O)O
- Activity [1]: Non-Toxic

SMILES: CNCCCC[C@H](NC(=O)[C@H](CCCNC(=N)N)NC(=O)CNC(=O)[C@H](Cc1ccc(O)cc1)NC(=O)CCNC(=O)c1ccc2c(c1)C1(OC2=O)c2ccc(O)cc2Oc2cc(O)ccc21)C(=O)N[C@@H](CCCCN)C(=O)N[C@@H](CCCNC(=N)N)C(=O)N[C@@H](CCCNC(=N)N)C(=O)N[C@@H](CCC(N)=O)C(=O)N[C@@H](CCCNC(=N)N)C(=O)N[C@@H](CCCNC(=N)N)C(=O)N[C@@H](CCCNC(=N)N)C(=O)O
- Activity [1]: Non-Toxic
- Drug uptake [2]: Active
- Drug uptake [3]: Active

SMILES: CC(=O)N[C@@H](Cc1ccc(O)cc1)C(=O)NCC(=O)N[C@@H](CCCNC(=N)N)C(=O)N[C@@H](CCCCN)C(=O)N[C@@H](CCCCN(C)C)C(=O)N[C@@H](CCCNC(=N)N)C(=O)N[C@@H](CCCNC(=N)N)C(=O)N[C@@H](CCC(N)=O)C(=O)N[C@@H](CCCNC(=N)N)C(=O)N[C@@H](CCCNC(=N)N)C(=O)N[C@@H](CCCNC(=N)N)C(N)=O
- Kd [4]: 280 nM

SMILES: CN(C)CCCC[C@H](NC(=O)[C@H](CCCCN)NC(=O)[C@H](CCCNC(=N)N)NC(=O)CNC(=O)[C@H](Cc1ccc(O)cc1)NC(=O)CCNC(=O)c1ccc2c(c1)C1(OC2=O)c2ccc(O)cc2Oc2cc(O)ccc21)C(=O)N[C@@H](CCCNC(=N)N)C(=O)N[C@@H](CCCNC(=N)N)C(=O)N[C@@H](CCC(N)=O)C(=O)N[C@@H](CCCNC(=N)N)C(=O)N[C@@H](CCCNC(=N)N)C(=O)N[C@@H](CCCNC(=N)N)C(=O)O
- Activity [1]: Non-Toxic
- Drug uptake [3]: Active

SMILES: CC(=O)NCCCC[C@H](NC(=O)[C@H](CCCCN)NC(=O)[C@H](CCCNC(=N)N)NC(=O)CNC(=O)[C@H](Cc1ccc(O)cc1)NC(C)=O)C(=O)N[C@@H](CCCNC(=N)N)C(=O)N[C@@H](CCCNC(=N)N)C(=O)N[C@@H](CCC(N)=O)C(=O)N[C@@H](CCCNC(=N)N)C(=O)N[C@@H](CCCNC(=N)N)C(=O)N[C@@H](CCCNC(=N)N)C(N)=O
- Kd [4]: 371 nM

SMILES: CNCCCC[C@H](NC(=O)[C@H](CCCCN)NC(=O)[C@H](CCCNC(=N)N)NC(=O)CNC(=O)[C@H](Cc1ccc(O)cc1)NC(C)=O)C(=O)N[C@@H](CCCNC(=N)N)C(=O)N[C@@H](CCCNC(=N)N)C(=O)N[C@@H](CCC(N)=O)C(=O)N[C@@H](CCCNC(=N)N)C(=O)N[C@@H](CCCNC(=N)N)C(=O)N[C@@H](CCCNC(=N)N)C(N)=O
- Kd [4]: 410 nM

SMILES: CNCCCC[C@H](NC(=O)[C@H](CCCNC(=N)N)NC(=O)CNC(=O)[C@H](Cc1ccc(O)cc1)NC(C)=O)C(=O)N[C@@H](CCCCN)C(=O)N[C@@H](CCCNC(=N)N)C(=O)N[C@@H](CCCNC(=N)N)C(=O)N[C@@H](CCC(N)=O)C(=O)N[C@@H](CCCNC(=N)N)C(=O)N[C@@H](CCCNC(=N)N)C(=O)N[C@@H](CCCNC(=N)N)C(N)=O
- Kd [4]: 264 nM

SMILES: CC(=O)N[C@@H](Cc1ccc(O)cc1)C(=O)NCC(=O)N[C@@H](CCCNC(=N)N)C(=O)N[C@@H](CCCCN)C(=O)N[C@@H](CCCC[N+](C)(C)C)C(=O)N[C@@H](CCCNC(=N)N)C(=O)N[C@@H](CCCNC(=N)N)C(=O)N[C@@H](CCC(N)=O)C(=O)N[C@@H](CCCNC(=N)N)C(=O)N[C@@H](CCCNC(=N)N)C(=O)N[C@@H](CCCNC(=N)N)C(N)=O
- Kd [4]: 599 nM
